Patent US20200332133A1, “SOLVENT AND METHOD OF FORMING ORGANIC FILM USING SOLVENT” (FLOSFIA INC., priority 2017, published 2020)
In brackets after ≈: the same amount, converted by molar mass.

Experiment: Solubility of the organic compound in nonpolar / polar solvent (added to 1.0 mL solvent to saturation point)
Assay type: physicochemical
Description: The raw material(s) is not particularly limited as long as the raw material(s) contains the organic compound, and the raw materials may contain the organic compound and an additive. The additive is not particularly limited as long as an object of a present inventive subject matter is not interfered with, and may be a known additive. The mixing ratio of the additive in the raw materials is not particularly limited, however, preferably in a range of 0.00001 mol % to 30 mol %, and further preferably in a range of 0.0001 mol % to 10 mol %. […] According to a present inventive subject matter, the organic compound is added into the polar solvent that is 1.0 mL to saturation point, and the remaining organic compound in the polar solvent was measured by deducting the remaining amount of organic compound in the polar solvent from the total amount of added organic compound in the polar solvent. […] According to a present inventive subject matter, the organic compound is added into the nonpolar solvent that is 1.0 mL to saturation point, and the remaining organic compound in the nonpolar solvent was measured by deducting the remaining amount of organic compound in the nonpolar solvent from the total amount of added organic compound in the nonpolar solvent. […]

## c12c3c4c5c1c1c6c7c2c2c8c3c3c9c4c4c%10c5c5c1c1c6c6c%11c7c2c2c7c8c3c3c8c9c4c4c9c%10c5c5c1c1c6c6c%11c2c2c7c3c3c8c4c4c9c5c1c1c6c2c3c41 [C60 fullerene]
Comparative Example 4, only 2-Pyrrolidone used as the solvent of the raw-material solution
  dissolution into the solvent: hardly dissolved
Nonpolar solvent mesitylene, temperature of 25° C.
  solubility to mesitylene: 1500 µg/mL (≈ 2080 µM)
